Series [1] in a line: Mouse plasma protein binding, rapid equilibrium dialysis. In kind it is in vitro ADME. From the text: (§1) page 5: Running title: PreclinicalPK -PD of antimalarials 73 to high through put form at using in- house standard assa y protocols that are described in the 74 literature. 75 (a)HT-Equilibrium solubilit y at pH 6.8( 1); (b)Parallel Artificial Membrane P ermeability Assa y 76 expressed in % fraction absorbed (FA) ( 2,3 ); (c)Apparent permeability from apical to […] 78 tested; (d)intrinsic clearance in mouse liver micro somes ex pressed as µ L/ min/mg protein, in 79 the presen ce of liver enzym es ( 6); (e)Mous e plasm a protein binding using rapid equilibrium […] 81 82 83 84 85 86 87 88 89 90 91 92 93 94 95 96 97 98 5
On the technique in general: Equilibrium dialysis compares concentrations on both sides of a semipermeable membrane.

Series [2] has as its system P. berghei GFP ANKA PbGFPCON. Briefly: In vitro (ex vivo) P. berghei maturation assay. In kind it is cell-based, Plasmodium berghei. As to the method: For the in vitro (ex vivo) P. berghei maturation assays ([38]), heparinized blood from infected mice (P. berghei GFP ANKA malaria strain PbGFPCON, a donation from A. P. Waters and C. J. Janse, Leiden University, Leiden, the Netherlands) ([39]) was washed with 9 ml of hypoxanthine-free culture medium and diluted with hypoxanthine-free culture medium and red blood cells (RBCs) from uninfected mice to a hematocrit of 5% and a parasitemia of 0.3%. Serial compound dilutions were prepared in DMSO and distributed as described above. The infected erythrocytes (0.3% final parasitemia and 2.5% final hematocrit) were added into the wells. After the plates were incubated for 16 h, 0.25 μCi of [^3H]hypoxanthine was added per well, and the plates were incubated for an additional 8 h. The parasites were harvested, and the in vitro (ex vivo) P. berghei IC50, IC90, and IC99 values were determined as described above.

A short description of series [3]: Parallel artificial membrane permeability assay (PAMPA). In kind it is in vitro ADME. The note with it: % fraction absorbed.
Excerpt: as §1
For orientation: PAMPA measures passive passage across an artificial lipid membrane.

Series [4] relates to P. berghei GFP ANKA malaria strain PbGFPCON. Briefly: Dose-response efficacy in the P. berghei malaria mouse model. In kind it is in vivo, female NMRI mice. Conditions: for Efficacy in the P. berghei mouse model: single oral doses 2.5 to 100 mg/kg; for Hill slope: dose vs parasitemia model; for Pmax (maximum parasitemia) / Pmin (minimum parasitemia): sigmoid dose-response model, single oral doses 24 h postinfection; for Pmax (maximum parasitemia) / Pmin (minimum parasitemia) / ED90 (effective dose causing a 90% reduction in parasitemia): parasitemia 72 h postinfection; for ED90 (effective dose causing a 90% reduction in parasitemia): single oral dose 24 h postinfection. The text has this:
All in vivo studies conducted at the Swiss Tropical and Public Health Institute (TPH) adhered to local and national regulations of laboratory animal welfare in Switzerland (permission no. 1731). For in vivo efficacy, female (specific-pathogen-free) […] (NMRI) mice were obtained from Janvier, Le Genest-Saint-Isle, France. Only mice without visible signs of disease were used for the study. Standard laboratory conditions were adopted for husbandry. In vivo antimalarial activity was assessed using groups of five female NMRI mice (20 to 22 g) intravenously infected on day zero with 2 × 10^7 erythrocytes parasitized with P. berghei GFP ANKA malaria strain PbGFPCON (a donation from A. P. Waters and C. J. Janse, Leiden University) ([39]). Untreated control mice typically died between day six and day seven postinfection. Experimental compounds were formulated in 10% ethanol, 30% PEG 400, and 60% of 10% vitamin E TPGS and were administered orally in a volume of 10 ml/kg. Dose-response efficacy studies were conducted for each spiroindolone analog. Doses of 2.5, 5, 10, 30, and 100 mg/kg were administered to groups of 5 mice each as a single dose at 24 h postinfection. Parasitemia, expressed as parasitized red blood cells (pRBCs) of >100 RBCs, was determined 72 h postinfection using standard flow cytometry techniques ([39]).
Data analysis was done using nonlinear mixed-effect modeling (NONMEM version VI 2.0), which analyzed the PD data from multiple dose groups obtained simultaneously from different experiments. Within NONMEM, first-order conditional estimation (FOCE) was the method used ([40]). The log-transformed dose and level of parasitemia were used for analysis. For each compound, a dose-response model was built, and the ED90 (effective dose lowering 90% of parasitemia) values were determined using equation 1 ([41]), where P is the parasitemia measured at any given dose, Pmax is the maximum level of parasitemia, Pmin is the minimum level of parasitemia, EZ50 is the dose required to produce 50% of the maximal effect, s is the Hill slope describing the steepness of the curve, and x is the dose (in mg/kg). 1 P=Pmin +{[Pmax−Pmin]/[1+10^(logEZ50−log x)×s]}

Setting [5] is: 16 h + 8 h incubation, read-out: IC50 (mean ± SD) for P. berghei GFP ANKA PbGFPCON (n = 3).

Values joined by “and” are separate entries in the source; they are usually repeats but may differ in a detail not shown here. Equal values may be shown once. “Also recorded” adds a separate entry of the source. Read-outs that look alike come from different tables or passages of the source.

As to `C[C@@H]1Cc2c([nH]c3cc(F)c(F)cc23)[C@]2(N1)C(=O)Nc1ccc(Cl)cc12` [(−)-6], in series [1], the “Mouse PPB” value is 99.6%. Besides, in series [2] (setting [5]), the 50% inhibitory concentration (IC50) (in general, the concentration that inhibits the measured activity by half) is 2850 nM. For the same compound, the “PAMPA %FA” value in series [3] turned out to be 97%. In series [4], the “Efficacy in the P. berghei mouse model” value is “no efficacy; also recorded: poor efficacy regardless of dose”.

Take `C[C@H]1Cc2c([nH]c3cc(Cl)c(F)cc23)[C@@]2(N1)C(=O)Nc1ccc(Cl)cc12` [(+)-7 (KAE609)]: the “Threshold (TRE), 2× the P. berghei IC99” value in series [2] is 123 nM and 48 ng/ml. The IC50 in series [2] (Plasmodium berghei, read-out: IC50 against P. berghei in vitro) came to 0.01 µg/mL. Further, the IC50 in series [2] (Plasmodium berghei, 16 h + 8 h incubation, read-out: IC50 (mean ± SD) for P. berghei GFP ANKA PbGFPCON (n = 3)) stood at 26 ± 14 nM. Moreover, the “IC99 in the ex vivo P. berghei maturation assay” value in series [2] (four-parametric logistic fit, Bayesian hierarchical model) is reported as 61.6 nM. Further, in series [4] (data not shown), the “Complete cure (>30 days survival)” value is listed as “complete cure”. In series [4], the Hill slope (commonly the slope factor of the fitted curve) is −2.73, the “Pmax (maximum parasitemia)” value is on record as 33.88, the “Pmin (minimum parasitemia)” value turned out to be 0.29 and the “ED90 (effective dose causing a 90% reduction in parasitemia)” value stood at 5.6 mg/kg.

Regarding `C[C@H]1Cc2c([nH]c3cc(F)ccc23)[C@@]2(N1)C(=O)Nc1ccc(Cl)cc12` [(+)-5], in series [1], the “Mouse PPB” value is 98.5%. Further, the IC50 in series [2] (setting [5]) is 88 ± 26 nM. In addition, in series [4], the Hill slope is reported as −2.99, the “Pmax (maximum parasitemia)” value turned out to be 25.70, the “Pmin (minimum parasitemia)” value is listed as 0.05 and the “ED90 (effective dose causing a 90% reduction in parasitemia)” value worked out at 38.1 mg/kg.

As to `C[C@H]1Cc2c([nH]c3cc(Cl)ccc23)[C@@]2(N1)C(=O)Nc1ccc(Cl)cc12` [(+)-3], the “Mouse PPB” value in series [1] worked out at 99.7%. For the same compound, the IC50 in series [2] (setting [5]) came to 140 ± 54 nM. Besides, in series [4], the Hill slope is reported as −6.4, the “Pmax (maximum parasitemia)” value came to 24.55, the “Pmin (minimum parasitemia)” value was found to be 0.12 and the “ED90 (effective dose causing a 90% reduction in parasitemia)” value is 17.9 mg/kg.

In the case of `C[C@H]1Cc2c([nH]c3cc(F)c(F)cc23)[C@@]2(N1)C(=O)Nc1ccc(Cl)cc12` [(+)-6], in series [1], the “Mouse PPB” value was 99.5%. For the same compound, the IC50 in series [2] (setting [5]) came to 7.5 ± 2.5 nM. In series [4], the Hill slope is −2.03, the “Pmax (maximum parasitemia)” value is 32.36, the “Pmin (minimum parasitemia)” value is listed as 0.09 and the “ED90 (effective dose causing a 90% reduction in parasitemia)” value is listed as 17.3 mg/kg.

Turning to `C[C@@H]1Cc2c([nH]c3cc(Cl)c(F)cc23)[C@]2(N1)C(=O)Nc1ccc(Cl)cc12` [(−)-7], in series [1], the “Mouse PPB” value is recorded as 99.4%. Moreover, in series [2] (setting [5]), the IC50 was 4910 nM. In series [4], the “Efficacy in the P. berghei mouse model” value was “no efficacy; also recorded: poor efficacy regardless of dose”.

In the case of `C[C@H]1Cc2c([nH]c3ccc(Cl)cc23)[C@@]2(N1)C(=O)Nc1ccc(Cl)cc12` [(+)-2], in series [2] (setting [5]), the IC50 worked out at 75 ± 32 nM. Moreover, in series [4], the Hill slope was −3.36, the “Pmax (maximum parasitemia)” value was determined as 30.90, the “Pmin (minimum parasitemia)” value is on record as 0.03 and the “ED90 (effective dose causing a 90% reduction in parasitemia)” value amounted to 17.4 mg/kg.

In the case of `C[C@H]1Cc2c([nH]c3ccc(F)cc23)[C@@]2(N1)C(=O)Nc1ccc(Cl)cc12` [(+)-4], the “Mouse PPB” value in series [1] was found to be 98.8%. The IC50 in series [2] (setting [5]) came to 104 ± 53 nM. In addition, the “PAMPA %FA” value in series [3] was 97%. In series [4], the Hill slope is given as −2.87, the “Pmax (maximum parasitemia)” value was found to be 30.90, the “Pmin (minimum parasitemia)” value stood at 0.03 and the “ED90 (effective dose causing a 90% reduction in parasitemia)” value was 16.7 mg/kg.

Source of the values: paper PMC4335872, “Pharmacokinetic-Pharmacodynamic Analysis of Spiroindolone Analogs and KAE609 in a Murine Malaria Model” (Antimicrobial Agents and Chemotherapy, 2015).
